Test results from patent US10487093B2, “Heterocyclic compounds, in particular 2-oxo-4,4,5,5,6,6,7,7-octahydrobenzoxazole derivatives, and their use as antibacterial compounds” (priority 2016, dated 2019).

Test system: Gram-negative and Gram-positive bacterial strains
Format: cell-based
Settings: including those which are resistant to fluoroquinolone antibiotics and other antibiotics

Structure (SMILES)	activity against all strains of A. baumannii and E. coli tested (in words)
COc1ccc2ncc(=O)n(CCN[C@H]3CCC4C(C3)OC(=O)N4c3ccc4c(n3)NC(=O)CO4)c2n1 (stereo in doubt) [Compound 45, (3aS,6S,7aS)-6-[(2-{6-methoxy-3-oxo-3H,4H-pyrido[2,3-b]pyrazin-4-yl}ethyl)amino]-3-{3-oxo-2H,3H,4H-pyrido[3,2-b][1,4]oxazin-6-yl}-octahydro-1,3-benzoxazol-2-one]	excellent activity
COc1ccc2ccc(=O)n(CCN[C@H]3CC[C@H]4[C@@H](C3)OC(=O)N4c3ccc4c(n3)NC(=O)CO4)c2n1 [Compound 4, 1-(2-{[(3aS,6S,7aR)-2-oxo-3-{3-oxo-2H,3H,4H-pyrido[3,2-b][1,4]oxazin-6-yl}-octahydro-1,3-benzoxazol-6-yl]amino}ethyl)-7-methoxy-1,2-dihydro-1,8-naphthyridin-2-one]	excellent activity
COc1ccc2ncc(=O)n(CCN[C@@H]3CC[C@@H]4[C@@H](C3)OC(=O)N4c3ccc4c(n3)NC(=O)CO4)c2c1 [Compound 21, 1-(2-{[(3aR,6R,7aR)-2-oxo-3-{3-oxo-2H,3H,4H-pyrido[3,2-b][1,4]oxazin-6-yl}-octahydro-1,3-benzoxazol-6-yl]amino}ethyl)-7-methoxy-1,2-dihydroquinoxalin-2-one]	excellent activity
O=C1COc2ccc(N3C(=O)O[C@@H]4C[C@@H](NCCn5c(=O)cnc6cc(F)c(F)cc65)CC[C@@H]43)nc2N1 [Compound 22, 1-(2-{[(3aS,6S,7aR)-2-oxo-3-{3-oxo-2H,3H,4H-pyrido[3,2-b][1,4]oxazin-6-yl}-octahydro-1,3-benzoxazol-6-yl]amino}ethyl)-6,7-difluoro-1,2-dihydroquinoxalin-2-one]	excellent activity
O=C1COc2ccc(N3C(=O)O[C@H]4C[C@@H](NCCn5c(=O)cnc6cc(F)c(F)cc65)CC[C@@H]43)nc2N1 [Compound 34, 1-(2-{[(3aS,6S,7aS)-2-oxo-3-{3-oxo-2H,3H,4H-pyrido[3,2-b][1,4]oxazin-6-yl}-octahydro-1,3-benzoxazol-6-yl]amino}ethyl)-6,7-difluoro-1,2-dihydroquinoxalin-2-one]	excellent activity
N#Cc1cnc2ccc(=O)n(CCN[C@H]3CC[C@H]4[C@H](C3)OC(=O)N4c3ccc4c(n3)NC(=O)CO4)c2c1 [Compound 55, 5-(2-{[(3aS,6S,7aS)-2-oxo-3-{3-oxo-2H,3H,4H-pyrido[3,2-b][1,4]oxazin-6-yl}-octahydro-1,3-benzoxazol-6-yl]amino}ethyl)-6-oxo-5,6-dihydro-1,5-naphthyridine-3-carbonitrile]	excellent activity
N#Cc1ccc2ccc(=O)n(CCN[C@H]3CC[C@H]4[C@H](C3)OC(=O)N4c3ccc4c(n3)NC(=O)CO4)c2c1 [Compound 56, 1-(2-{[(3aS,6S,7aS)-2-oxo-3-{3-oxo-2H,3H,4H-pyrido[3,2-b][1,4]oxazin-6-yl}-octahydro-1,3-benzoxazol-6-yl]amino}ethyl)-2-oxo-1,2-dihydroquinoline-7-carbonitrile]	excellent activity
N#Cc1ccc2ncc(=O)n(CCN[C@@H]3CC[C@@H]4[C@@H](C3)OC(=O)N4c3ccc4c(n3)NC(=O)CO4)c2c1 [Compound 68, 4-(2-{[(3aR,6R,7aR)-2-oxo-3-{3-oxo-2H,3H,4H-pyrido[3,2-b][1,4]oxazin-6-yl}-octahydro-1,3-benzoxazol-6-yl]amino}ethyl)-3-oxo-3,4-dihydroquinoxaline-6-carbonitrile]	excellent activity
COc1cnc2ccc(=O)n(CCN[C@@H]3CC[C@@H]4[C@@H](C3)OC(=O)N4c3ccc4c(n3)NC(=O)CO4)c2c1 [Compound 69, 1-(2-{[(3aR,6R,7aR)-2-oxo-3-{3-oxo-2H,3H,4H-pyrido[3,2-b][1,4]oxazin-6-yl}-octahydro-1,3-benzoxazol-6-yl]amino}ethyl)-7-methoxy-1,2-dihydro-1,5-naphthyridin-2-one]	excellent activity
N#Cc1cnc2ccc(=O)n(CCN[C@H]3CC[C@H]4[C@H](C3)OC(=O)N4c3ccc4c(n3)NC(=O)CS4)c2c1 [Compound 77, 5-(2-{[(3aS,6S,7aS)-2-oxo-3-{3-oxo-2H,3H,4H-pyrido[3,2-b][1,4]thiazin-6-yl}-octahydro-1,3-benzoxazol-6-yl]amino}ethyl)-6-oxo-5,6-dihydro-1,5-naphthyridine-3-carbonitrile]	excellent activity
COc1cccc(-c2cccc(CN[C@@H]3CC[C@@H]4[C@@H](C3)OC(=O)N4c3ccc4c(n3)NC(=O)CO4)c2)n1 [Compound 80, (3aR,6R,7aR)-6-({[3-(6-methoxypyridin-2-yl)phenyl]methyl}amino)-3-{3-oxo-2H,3H,4H-pyrido[3,2-b][1,4]oxazin-6-yl}-octahydro-1,3-benzoxazol-2-one]	excellent activity
COc1cnc2ccc(=O)n(CCN[C@H]3CC[C@H]4[C@H](C3)OC(=O)N4c3ccc4c(n3)NC(=O)CS4)c2c1 [Compound 81, 1-(2-{[(3aS,6S,7aS)-2-oxo-3-{3-oxo-2H,3H,4H-pyrido[3,2-b][1,4]thiazin-6-yl}-octahydro-1,3-benzoxazol-6-yl]amino}ethyl)-7-methoxy-1,2-dihydro-1,5-naphthyridin-2-one]	excellent activity
COc1ccc2ccc(=O)n(CCCN[C@H]3CC[C@H]4[C@H](C3)OC(=O)N4c3ccc4c(n3)NC(=O)CS4)c2n1 [Compound 85, 1-(3-{[(3aS,6S,7aS)-2-oxo-3-{3-oxo-2H,3H,4H-pyrido[3,2-b][1,4]thiazin-6-yl}-octahydro-1,3-benzoxazol-6-yl]amino}propyl)-7-methoxy-1,2-dihydro-1,8-naphthyridin-2-one]	excellent activity
O=C1COc2ccc(N3C(=O)O[C@@H]4C[C@H](NCCCn5c(=O)cnc6cc(F)c(F)cc65)CC[C@H]43)nc2N1 [Compound 88, 1-(3-{[(3aR,6R,7aR)-2-oxo-3-{3-oxo-2H,3H,4H-pyrido[3,2-b][1,4]oxazin-6-yl}-octahydro-1,3-benzoxazol-6-yl]amino}propyl)-6,7-difluoro-1,2-dihydroquinoxalin-2-one]	excellent activity
O=C1COc2ccc(N3C(=O)O[C@H]4C[C@@H](NCCCn5c(=O)cnc6cc(F)c(F)cc65)CC[C@@H]43)nc2N1 [Compound 90, 1-(3-{[(3aS,6S,7aS)-2-oxo-3-{3-oxo-2H,3H,4H-pyrido[3,2-b][1,4]oxazin-6-yl}-octahydro-1,3-benzoxazol-6-yl]amino}propyl)-6,7-difluoro-1,2-dihydroquinoxalin-2-one]	excellent activity
O=C1COc2ccc(N3C(=O)O[C@H]4C[C@@H](NCCn5c(=O)ccc6ccc(OC(F)F)cc65)CC[C@@H]43)nc2N1 [Compound 101, 1-(2-{[(3aS,6S,7aS)-2-oxo-3-{3-oxo-2H,3H,4H-pyrido[3,2-b][1,4]oxazin-6-yl}-octahydro-1,3-benzoxazol-6-yl]amino}ethyl)-7-(difluoromethoxy)-1,2-dihydro quinolin-2-one]	excellent activity
COc1ccc2ccc(=O)n(CCN[C@H]3CC[C@H]4[C@H](C3)OC(=O)N4c3ccc4c(n3)NC(=O)CO4)c2c1 [Compound 102, 1-(2-{[(3aS,6S,7aS)-2-oxo-3-{3-oxo-2H,3H,4H-pyrido[3,2-b][1,4]oxazin-6-yl}-octahydro-1,3-benzoxazol-6-yl]amino}ethyl)-7-methoxy-1,2-dihydroquinolin-2-one]	excellent activity
N#Cc1cccc(-c2cccc(CN[C@H]3CC[C@H]4[C@H](C3)OC(=O)N4c3ccc4c(n3)NC(=O)CO4)n2)c1 [Compound 105, 3-[6-({[(3aS,6S,7aS)-2-oxo-3-{3-oxo-2H,3H,4H-pyrido[3,2-b][1,4]oxazin-6-yl}-octahydro-1,3-benzoxazol-6-yl]amino}methyl)pyridin-2-yl]benzonitrile]	excellent activity
